Experimental data reported in patent US7629318B2, “Immunosuppressant compounds, methods and uses related thereto” (priority 2002, dated 2009).
Square brackets hold non-standard residues; d marks the D form. Peptide text beside a SMILES is read from it. * marks the point of attachment. Gly(1-amidinopiperidin-4-yl) = N=C(N)N1CCC([C@H](N)C(=O)O)CC1; Tic = O=C(O)[C@@H]1Cc2ccccc2CN1; Cha = N[C@@H](CC1CCCCC1)C(=O)O; NMe(benzyl) = CN(Cc1ccccc1)*; Nle = CCCC[C@H](N)C(=O)O

Experiments:
[1] = tested on: DR4 transgenic mice, EAE induced by MOG; test: Experimental autoimmune encephalomyelitis (EAE) mouse model for multiple sclerosis; format: in vivo; conditions: compared to solvent as control; s.c.
Method: EAE is induced in DR4 transgenic mice by injection of myelin oligodendrocyte glycoprotein (MOG) as described by Ito et al. (1996). After disease onset, mice are treated with compounds and studied as below:
Disease Score • 1. Tail atony • 2. Hind limb weakness • 3. Hind limb paralysis • 4. Hind limb paralysis and fore limb weakness or paralysis • 5. Moribund

[2] = tested on: T cell activation from 0404(DR14) chimeric MHCII-mice; test: In vivo inhibition of T cell activation by co-immunisation, DR14 mice immunised with OVA; parameters: species or system mouse; % Reduction of response to PPD(OVA): concentration or dose not given beside the values
Summary of the method: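 DR4 or DR14 chimeric MHC-II transgenic mice were co-immunised at the tail base with 50 μg HEL (DR4) or OVA (DR14) plus 210 nM compound, emulsified in CFA. After 9 days, pooled lymph node cells from 2–3 mice per group were tested for T-cell proliferation across an antigen dose range, compared with antigen-only immunisation; PPD served as a specificity control.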

[3] = tested on: HLA-DR1 transgenic mice, collagen induced arthritis; test: Collagen induced arthritis (CIA) mouse model for rheumatoid arthritis; format: in vivo; conditions: compared to solvent as control; s.c.
Method: CIA is induced by immunization with type II collagen in HLA-DR1 transgenic mice as described by Rosloniec et al (J. Exp. Med. 1997; 185: 113). After disease onset, mice are treated with compounds at the maximal tolerated dose s.c. for two weeks, and the disease development compared to that in mice treated with solvent only as follows:
Disease Severity Score • 1. Erythema and mild swelling confined to the tarsals or ankle joint • 2. Erythema and mild swelling extending from the ankle to the tarsals • 3. Erythema and moderate swelling extending from the ankle to the metatarsal joints • 4. Erythema and severe swelling encompass the ankle, foot, and digits

[4] = tested on: T cell activation from 0401(DR4) chimeric MHCII-mice; test: In vivo inhibition of T cell activation by co-immunisation, DR4 mice immunised with HEL; parameters: species or system mouse; % Reduction of response to PPD(HEL): concentration or dose not given beside the values
Text: Mouse strains DR4 and DR14 carry chimeric MHC-II transgenes that encode the N-terminal domains of the respective DR molecules (forming the peptide binding site) and the remaining (2nd extracellular domains, transmembrane and intracytoplasmic domains) of the murine class II molecule I Ed. These strains are deficient of other murine class II, and thus, all helper T cell responses are triggered by peptides presented in the respective human MHC-II binding site. As an initial in vivo test of subject inhibitors designed to bind to DR, DR-transgenic mice were co-immunized with a pre-defined dose of protein antigen and different amounts of the compound antagonist to be tested. In this set-up, both antigen and compound were emulsified together in complete Freund's adjuvant (CFA), and thus, a direct competition between the two components for presentation by DR was tested. Readout of the assay is ex vivo antigen-specific activation of T cells from regional lymph nodes explanted 9 days after co-immunization. In a typical experiment, antigen dose-response was investigated, and the curves from mice immunized with antigen were compared to those from mice co-immunized with antigen+compound. The dose response curves were generated using lymph node cells pooled at equal numbers from 2-3 mice per experimental group. The experimental system also permits assessment of inherent antigenicity of the compound antagonist. This was done by setting up a dose-response study from the same cell pool using different concentrations of the compund under investigation instead of the antigen. As a specificity control, the response to Purified Protein Derivative (PPD), the major protein component of CFA, was tested in the same cell pool.
All Gpg conataining compounds have significant immunosupressive properties in one or both of the in-vivo models. Gpg-containing compounds also show improved activity or improved specificity over the Arg-containing equivilent. Further, compounds according to Formula I show activity in this assay.
Compounds of the invention were injected as an Emulsion prepared using CFA (Bacto Adjuvant Complete H37 Ra, Difco, Order-No. 3113-60); proteins 10 mg/ml in PBS, inhibitors 5 μM in 10% DMSO. CFA, PBS, antigen, and inhibitor were placed in the barrel of a 5-ml syringe (total volume not more than 1 mL). The mixture was sonicated at an amplitude less than 40% (30-35%) for two separated 15 s periods. The emulsion should seem to be hard and not liquid at this point. A drop of emulsion placed on the surface of water should not melt. The resulting emulsion was pushed through the needle into a 1 ml syringe with a needle (Gr.18, 26G×1″), and air bubbles were removed. Mice were co-immunized with 50 μg protein and 210 nM compound antagonist in final 100 μl emulsion into the tail base. Antigen+Compound and CFA are mixed 1:1 vol/vol. The best results are obtained using DR 4 mice immunised with HEL and DR 14 mice immunized with OVA.
Mice were injected at the tail-base as follows: Holding the tail of a mouse with thumb and middle finger, the index finger was placed under the base of the mouse's tail. The needle of the syringe was inserted about 1.5 cm from the tail base (hairy end) under the skin and pushed about 1 cm into the tail. 100 μl emulsion was injected into the mouse. After 9 days, mice were killed and lymph nodes removed.
The inhibitory effect of the candidate compounds on T-cell activation was tested using T-cells and antigen-presenting cells isolated from the lymph nodes of chimeric DR4-IE transgenic mice (Taconic, USA) previously co-immunized with hen egg lysozyme plus compound, or DR14-IE transgenic mice co-immunized with ovalbumin plus compound according to standard procedures (Adorini et al., 1988, Mueller et al., 1990; Current Protocols in Immunology, Vol. 2, 7.21; Ito et al., 1996). […]

**Q.** With CCCC[C@H](NC(=O)[C@@H]1Cc2ccccc2CN1C(=O)[C@@H](NC(=O)[C@H](CC1CCCCC1)NC(C)=O)C1CCN(C(=N)N)CC1)C(=O)N(C)Cc1ccccc1 [Compound P74, Ac-Cha-Gpg-Tic-Nle-N(Me)Bn] (Ac-[Cha][Gly(1-amidinopiperidin-4-yl)][Tic][Nle]-{NMe(benzyl)}) as the molecule, how does the “efficacy in the EAE mouse model for multiple sclerosis prevention” value [1] read?
**A.** Efficacy

**Q.** And the “% Reduction of response to OVA” value ([2]; DR14 mice co-immunised with OVA plus compound, mean % inhibition from the control over 3 concentrations of antigen (6.7, 20 and 60 ug))?
**A.** 42.5%

**Q.** What about the “% Reduction of response to PPD(OVA)” value ([2]; specificity control: response to PPD in the same cell pool, OVA co-immunised mice) of the same molecule?
**A.** 5.8%

**Q.** What about the “efficacy in the CIA mouse model for rheumatoid arthritis” value [3] of the same molecule?
**A.** Efficacy

**Q.** And the “% Reduction of response to HEL” value ([4]; DR4 mice co-immunised with HEL plus compound, mean % inhibition from the control over 3 concentrations of antigen (6.7, 20 and 60 ug))?
**A.** 51.6%

**Q.** And the “% Reduction of response to PPD(HEL)” value ([4]; specificity control: response to PPD in the same cell pool, HEL co-immunised mice)?
**A.** 12.8%
